Experimental findings from ChEMBL document CHEMBL1201862, “PubChem BioAssay data set” (2004) are described below.

Assay in all cases: NCI-60 cell line screen, 48 h
The subject of test [1] is M19-MEL.
For test [2], the system named is KM-20L2.
Test [3] relates to DMS-273.
The test system of test [4] is DMS-114.
Test [5] has as its system XF498.
For test [6], the system named is LXFL 529.
Test [7] relates to DLD-1.
In test [8] the test system is RXF 631.
Test [9] has as its system HOP-18.

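Tested at 5 concentrations; 48 h exposure; 96-well plates; endpoints linearly interpolated, else capped at highest concentration. At the GI50, growth is halved.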 Active and inactive are the calls of the source. Cut-off read from the data, not from the text of the source: active = GI50 up to about 1.1 µM and inactive = higher. Some results are limits rather than exact numbers.

With `CNS(=O)(=O)NN(C)S(=O)(=O)c1ccc(Br)cc1`, the GI50 in [1], in [2], in test [3], in [4], in [5] and in [6] was > 100 µM (inactive) each time. The figures for the GI50 in test [7] and in test [8] were > 10 µM (inactive) and > 100 µM (inactive), respectively.
For `COC(=O)c1c(-c2ccccc2)sc(-c2cccc3ccccc23)c1C(=O)OC`, the GI50 in test [1] is > 100 µM (inactive); in test [2], > 100 µM (inactive); in test [3], > 100 µM (inactive); in test [9], > 100 µM (inactive); in [6], > 100 µM (inactive); in test [7] it was 18 µM (inactive).
Regarding `COC1=CC(=O)C2C(C1=O)[C@@H]1c3ccccc3OC(C)(C)[C@H]21` (stereo not given in full), the GI50 is 20.2 µM (inactive) in test [1]; 27.1 µM (inactive) in test [2]; 22.9 µM (inactive) in test [3]; 20.7 µM (inactive) in [4]; 18.1 µM (inactive) in test [5]; 18.7 µM (inactive) in test [6]. Moreover, in [7], the GI50 was 19.2 µM (inactive).
For `NC(=O)C(=Cc1ccc(CP(=O)(O)O)cc1)C(N)=O`, the GI50 in [1], in test [2], in test [3], in test [4], in [9] and in test [5] was > 100 µM (inactive) in each case. Moreover, the GI50 in [6] and in [7] was > 100 µM (inactive) each time.
With `O=C(CC1C(=O)Nc2ccccc2S1(=O)=O)Nc1cccc(Cl)c1` (stereo not given), the GI50 in test [1] was 19.1 µM (inactive); in test [2] it was 21.1 µM (inactive); in test [3], 14.5 µM (inactive); in test [4], 16.1 µM (inactive); in test [5], 21.3 µM (inactive); in [6], 17.2 µM (inactive). The values for the GI50 in test [7] and in [8] were 17.5 µM (inactive) and 19.9 µM (inactive), respectively.
As to `O=C(O)CCSC(=O)Nc1ccc(/N=N/c2ccccc2)cc1`, the GI50 in [2] was > 100 µM (inactive); in test [3], > 100 µM (inactive); in test [4], 61.8 µM (inactive); in test [9] it was > 100 µM (inactive); in [5], > 100 µM (inactive); in test [6], 61.1 µM (inactive). Further, the GI50 in test [7] and in [8] was > 100 µM (inactive) throughout.
As for `O=C1OC2C(O)COC2(O)C1(O)C(C[N+](=O)[O-])c1ccc(Cl)cc1` (stereo not given), the GI50 in test [1] is 2.5 µM (inactive); in test [2], 2.51 µM (inactive); in [3], 3.3 µM (inactive); in [4], 2.76 µM (inactive); in test [9], 9.02 µM (inactive); in [6] it was 1.95 µM (inactive). Besides, the GI50 in [7] was 1.81 µM (inactive).
In the case of `CCOC(=O)C1=C(O)C(=O)c2cc(C)ccc2C1=O`, the GI50 is 16.6 µM (inactive) in test [1]; > 100 µM (inactive) in test [2]; > 100 µM (inactive) in test [3]; > 100 µM (inactive) in test [4]; 45.5 µM (inactive) in test [9]; > 100 µM (inactive) in [5]. Moreover, the GI50 in test [7] is > 100 µM (inactive).
Regarding `Cc1c(C(=O)CSc2nc3cc([N+](=O)[O-])ccc3[nH]2)c(=O)n(-c2ccccc2)n1C`, the GI50 in [1], in [3], in test [4], in test [5], in test [6] and in test [7] was > 100 µM (inactive) each time.
With `Cc1c(N2CCOCC2)nc2ccc(Cl)cc2c1-c1ccccc1`, the GI50 in test [1] was 85.7 µM (inactive); in test [3], 59.8 µM (inactive); in test [4], 70.1 µM (inactive); in test [6], 61.2 µM (inactive).
Turning to `CCOP(=O)(OCC)/C(C#N)=C\c1ccc(OC(C)=O)cc1`, the GI50 in [1], in test [2], in [4], in test [9], in [5] and in [6] was > 100 µM (inactive) in each case. Besides, in [7], the GI50 is > 100 µM (inactive).
On to `Cc1cc2c(=O)c3ccc(Cl)cc3[nH]c2c(C(N)=O)c1C`, for which the GI50 in [1], in test [2], in [3], in test [4], in [5] and in test [6] was > 100 µM (inactive) throughout. Further, the GI50 in test [7] and in test [8] was > 100 µM (inactive) each time.
On to `COC(=O)/C(C#N)=C(\N)C(Cl)(Cl)Cl`, for which the GI50 in test [1] was 2.43 µM (inactive); in test [2], 29.7 µM (inactive); in test [3], 3.45 µM (inactive); in test [4], 3.73 µM (inactive); in [5] it was 1.78 µM (inactive); in test [6] it was 2.7 µM (inactive). Further, the GI50 was 1.17 µM (inactive) in [7] and 2.78 µM (inactive) in [8].
Turning to `COc1cc(NCC(C#N)C#N)ccc1/N=N/c1ccc([N+](=O)[O-])cc1`, the GI50 in test [1] was > 100 µM (inactive); in test [2], > 100 µM (inactive); in test [3], > 100 µM (inactive); in test [4], 65.2 µM (inactive); in test [9] it was > 100 µM (inactive); in test [6], 37.6 µM (inactive). In addition, the GI50 in [7] and in test [8] was > 100 µM (inactive) each time.
`C[N+](C)(C)CC1CCCC1=O` (stereo not given): the GI50 in test [1] is 2.22 µM (inactive); in test [2], 2.61 µM (inactive); in test [3] it was 6.87 µM (inactive); in test [4], 3.24 µM (inactive); in [9], 1.87 µM (inactive); in test [5] it was 1.87 µM (inactive). Besides, the figures for the GI50 in test [6], in [7] and in [8] were 1.26 µM (inactive), 1.01 µM (active) and 14.2 µM (inactive), respectively.
For the molecule `CCCN1CN(C(C(=O)N[C@@H]2C(=O)N3C2SC(C)(C)C3C(=O)O)c2ccccc2)CSC1=S` (stereo not given in full), the GI50 is > 100 µM (inactive) in [1]; > 100 µM (inactive) in test [2]; 48.8 µM (inactive) in [3]; 54 µM (inactive) in [4]; > 100 µM (inactive) in test [9]; > 100 µM (inactive) in test [5]. Besides, the GI50 in test [6] is 70.5 µM (inactive); in [7] it was 84.1 µM (inactive).
`O=C1CC2(C[C@@H]3CCCCCCCCC[C@@H](C3)C2)N1` (stereo not given in full): the GI50 in test [1] is 15.2 µM (inactive); in test [2], 15.6 µM (inactive); in test [3], 12.3 µM (inactive); in test [4] it was 16.7 µM (inactive); in test [9], 10.5 µM (inactive); in [5], 12.2 µM (inactive). The GI50 in test [6] is 15.7 µM (inactive).
`NC(CCSC(F)F)C(=O)O` (stereo not given): the GI50 was > 100 µM (inactive) in [1]; > 100 µM (inactive) in test [2]; > 100 µM (inactive) in test [3]; 65.3 µM (inactive) in test [4]; > 100 µM (inactive) in test [5]; > 100 µM (inactive) in [6]. Also, the GI50 in test [7] is > 100 µM (inactive).
With `CCOc1ccc(/C=C/C(=O)c2sc(NNC(C)=O)nc2C)cc1`, the GI50 in [1], in [2], in test [3], in [4], in test [9] and in test [7] was > 100 µM (inactive) in each case.
With `COc1nc2nccc-2c2occn12`, the GI50 in test [1], in test [2], in [3], in test [4], in test [9] and in [5] was > 100 µM (inactive) throughout. The GI50 in test [6], in test [7] and in [8] was > 100 µM (inactive) in each case.
As for `O=C1O[B-](c2ccccc2)(c2ccccc2)[NH2+]C1CS` (stereo not given), the GI50 in test [1] is 35.3 µM (inactive); in [2] it was 64.7 µM (inactive); in test [3], 34.9 µM (inactive); in test [4], 34.9 µM (inactive); in test [9], > 100 µM (inactive); in test [5] it was > 100 µM (inactive). Further, the GI50 in test [6] is 39.9 µM (inactive); in test [7], 33 µM (inactive); in [8], 50.8 µM (inactive).
Take `CCOC(=O)N[C@@H]1C(CC(=O)OC)O[C@H]2OC(C)(C)O[C@H]21` (stereo not given in full): the GI50 in test [1], in test [2], in test [3], in test [4], in [9] and in [5] was > 100 µM (inactive) each time. Further, the GI50 in [6], in [7] and in test [8] was > 100 µM (inactive) throughout.
Consider `COc1ccc2cc3[n+](cc2c1O)CCc1cc2c(cc1-3)OCO2` [BERBERRUBINE CHLORIDE], for which the GI50 in test [1] was > 100 µM (inactive); in [2] it was > 100 µM (inactive); in test [9], > 100 µM (inactive); in [5], > 100 µM (inactive); in test [6] it was > 10 µM (inactive); in test [7] it was > 100 µM (inactive).
